Laboratory results from the supplement of paper PMC10307832.

Compound: N[C@@H]1CCCN(c2c(/C=C3\SC(=O)NC3=O)cccc2-c2ccccc2)C1 [AZD1208] + Cc1nc(NC(=O)N2CCC[C@H]2C(N)=O)sc1-c1ccnc(C(C)(C)C(F)(F)F)c1 [Alpelisib] (partner 2 µM)
Test: relative viability (nuclei count vs DMSO), 5 days (fraction); higher = more cells survive
Settings: first compound 0.08 µM
In short: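 Lung cancer cell lines were seeded in 1536-well plates and dosed by pin tool the next day, with either a single drug or a fixed anchor-drug dose combined with five library-drug doses (not always all listed) spaced in √10 steps. Five days later, one step fixed the cells and stained their nuclei (final 0.05% Triton X-100, 1% formaldehyde, 1 ug/ml Hoechst), and nuclei were counted on 4× images. Relative viability is the nuclei count in treated wells divided by the count in vehicle wells, and each value is the median of duplicate plates.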

First: HCC-78
Second: NCI-H441
The relative viability of the first is lower: 0.329 for the first, 0.55 for the second.

Compared with LCLC-97TM1, A-427 is higher in relative viability: 0.267 for the first, 1.02 for the second.

Compared with NCI-H460, NCI-H727 is higher in relative viability: 0.502 for the first, 0.542 for the second.

First: NCI-H1734
Second: NCI-H2405
The relative viability of the first is lower: 0.614 for the first, 0.692 for the second.

Going from NCI-H1395 to 201T, the relative viability rises from 0.925 to 1.04.

First: NCI-H1915
Second: HCC-827
The relative viability of the first is higher: 1.05 for the first, 0.969 for the second.

Compared with LXF-289, NCI-H2347 is lower in relative viability: 1.05 for the first, 1.01 for the second.

Going from NCI-H650 to CAL-12T, the relative viability rises from 1.11 to 1.12.

Going from NCI-H1651 to EPLC-272H, the relative viability rises from 0.848 to 0.938.

Compared with NCI-H23, NCI-H1355 is higher in relative viability: 0.658 for the first, 0.826 for the second.

Compared with NCI-H322M, NCI-H1437 is higher in relative viability: 0.718 for the first, 0.927 for the second.

Going from NCI-H1755 to NCI-H2085, the relative viability falls from 0.933 to 0.921.

Compared with HCC-15, NCI-H1793 is lower in relative viability: 0.742 for the first, 0.639 for the second.

Going from PC-3 [JPC-3] to EKVX, the relative viability falls from 1.07 to 0.866.

Going from LC-2-ad to NCI-H1944, the relative viability rises from 0.816 to 0.864.

Compared with NCI-H1975, ABC-1 is higher in relative viability: 0.603 for the first, 1.14 for the second.

Going from NCI-H358 to RERF-LC-KJ, the relative viability rises from 0.64 to 0.708.

Same assay, conditions: first compound 0.253 µM

First: HCC-78
Second: NCI-H441
The relative viability of the first is lower: 0.339 for the first, 0.787 for the second.

First: LCLC-97TM1
Second: A-427
The relative viability of the first is lower: 0.212 for the first, 1.07 for the second.

First: NCI-H460
Second: NCI-H727
The relative viability of the first is lower: 0.408 for the first, 0.543 for the second.

Compared with NCI-H1734, NCI-H2405 is higher in relative viability: 0.619 for the first, 0.727 for the second.

First: NCI-H1395
Second: 201T
The relative viability of the first is higher: 1.07 for the first, 0.948 for the second.

Compared with NCI-H1915, HCC-827 is lower in relative viability: 1.09 for the first, 1.04 for the second.

Going from LXF-289 to NCI-H2347, the relative viability falls from 1.13 to 0.936.

First: NCI-H650
Second: CAL-12T
The relative viability of the first is lower: 1.15 for the first, 1.22 for the second.

Compared with NCI-H1651, EPLC-272H is higher in relative viability: 0.921 for the first, 0.949 for the second.

Going from NCI-H23 to NCI-H1355, the relative viability rises from 0.58 to 0.832.

Going from NCI-H322M to NCI-H1437, the relative viability rises from 0.718 to 0.981.

Compared with NCI-H1755, NCI-H2085 is lower in relative viability: 1.02 for the first, 0.979 for the second.

Going from HCC-15 to NCI-H1793, the relative viability falls from 0.823 to 0.778.

Compared with PC-3 [JPC-3], EKVX is lower in relative viability: 1.07 for the first, 0.936 for the second.

Compared with LC-2-ad, NCI-H1944 is higher in relative viability: 0.592 for the first, 0.762 for the second.

First: NCI-H1975
Second: ABC-1
The relative viability of the first is lower: 0.64 for the first, 0.727 for the second.

Compared with NCI-H358, RERF-LC-KJ is higher in relative viability: 0.709 for the first, 0.762 for the second.

Same assay, conditions: first compound 0.8 µM

First: HCC-78
Second: NCI-H441
The relative viability of the first is lower: 0.27 for the first, 0.617 for the second.

Compared with A-427, NCI-H460 is lower in relative viability: 1.02 for the first, 0.458 for the second.

Compared with NCI-H727, NCI-H1734 is higher in relative viability: 0.496 for the first, 0.557 for the second.

Compared with NCI-H2405, NCI-H1395 is higher in relative viability: 0.637 for the first, 1.1 for the second.

Going from 201T to NCI-H1915, the relative viability rises from 0.919 to 1.05.

First: HCC-827
Second: LXF-289
The relative viability of the first is lower: 0.915 for the first, 1.01 for the second.

NCI-H2347 and NCI-H650 are the same in relative viability: 1.07 for the first, 1.07 for the second.

Going from CAL-12T to NCI-H1651, the relative viability falls from 1.13 to 0.785.

First: EPLC-272H
Second: NCI-H23
The relative viability of the first is higher: 0.807 for the first, 0.493 for the second.

Compared with NCI-H1355, NCI-H322M is higher in relative viability: 0.704 for the first, 0.75 for the second.

First: NCI-H1437
Second: NCI-H1755
The relative viability of the first is lower: 0.796 for the first, 0.858 for the second.

Going from NCI-H2085 to HCC-15, the relative viability falls from 0.885 to 0.557.

Compared with NCI-H1793, PC-3 [JPC-3] is higher in relative viability: 0.664 for the first, 1 for the second.

Going from EKVX to LC-2-ad, the relative viability rises from 0.775 to 0.787.

Going from NCI-H1944 to NCI-H1975, the relative viability falls from 0.715 to 0.617.

First: ABC-1
Second: NCI-H358
The relative viability of the first is higher: 0.769 for the first, 0.546 for the second.

RERF-LC-KJ showed a relative viability of 0.703.

Same assay, conditions: first compound 2.53 µM

Going from HCC-78 to NCI-H441, the relative viability rises from 0.257 to 0.466.

Compared with LCLC-97TM1, A-427 is higher in relative viability: 0.169 for the first, 1.02 for the second.

First: NCI-H460
Second: NCI-H727
The relative viability of the first is lower: 0.46 for the first, 0.497 for the second.

Compared with NCI-H1734, NCI-H2405 is higher in relative viability: 0.556 for the first, 0.728 for the second.

First: NCI-H1395
Second: 201T
The relative viability of the first is higher: 1.24 for the first, 1.04 for the second.

First: NCI-H1915
Second: HCC-827
The relative viability of the first is higher: 1.03 for the first, 0.859 for the second.

First: LXF-289
Second: NCI-H2347
The relative viability of the first is higher: 1.03 for the first, 0.904 for the second.

First: NCI-H650
Second: CAL-12T
The relative viability of the first is lower: 0.967 for the first, 1.1 for the second.

Compared with NCI-H1651, EPLC-272H is higher in relative viability: 0.732 for the first, 0.807 for the second.

Going from NCI-H23 to NCI-H1355, the relative viability rises from 0.564 to 0.771.

Compared with NCI-H322M, NCI-H1437 is higher in relative viability: 0.73 for the first, 0.827 for the second.

Compared with NCI-H1755, NCI-H2085 is higher in relative viability: 0.859 for the first, 1.02 for the second.

First: HCC-15
Second: NCI-H1793
The relative viability of the first is higher: 0.664 for the first, 0.507 for the second.

Compared with PC-3 [JPC-3], EKVX is lower in relative viability: 1.1 for the first, 0.802 for the second.

First: LC-2-ad
Second: NCI-H1944
The relative viability of the first is higher: 0.894 for the first, 0.726 for the second.

First: NCI-H1975
Second: ABC-1
The relative viability of the first is lower: 0.63 for the first, 0.903 for the second.

First: NCI-H358
Second: RERF-LC-KJ
The relative viability of the first is lower: 0.592 for the first, 0.652 for the second.

Same assay, conditions: first compound 8 µM

Going from HCC-78 to NCI-H441, the relative viability rises from 0.266 to 0.446.

Compared with LCLC-97TM1, A-427 is higher in relative viability: 0.199 for the first, 0.97 for the second.

First: NCI-H460
Second: NCI-H727
The relative viability of the first is higher: 0.409 for the first, 0.387 for the second.

First: NCI-H1734
Second: NCI-H2405
The relative viability of the first is lower: 0.434 for the first, 0.723 for the second.

In the case of NCI-H1395, the relative viability is reported as 0.851.
